Data from patent publication US20100317689A1, “Prodrugs of proton pump inhibitors including the 1h-imidazo[4,5-b] pyridine moiety” (priority 2006, published 2010).

Experiments:
[1] = Stability in human plasma; type: in vitro ADME
Experimental: (§1) Exemplary test compounds (prodrugs) of the invention can be incubated in plasma at 37° C. to test their stability and hydrolysis to give the corresponding drug TENATOPRAZOLE. The concentration of the compounds and also of the corresponding proton pump inhibitor TENATOPRAZOLE can be determined by a gradient HPLC-UV method. Although the half-lives of test compounds in plasma is expected to vary depending on their specific structure, nevertheless it is expected that in plasma the compounds of the invention are converted into the corresponding proton pump inhibitor TENATOPRAZOLE at a rate faster than the hydrolysis rate of the compound at neutral or near neutral pH. […] Therefore the compounds of the invention and especially the preferred compounds which have the chemical structure shown in Formulas 4 and 5 are good candidates to be used as prodrugs in intravenous injection and are expected to release the active proton pump inhibitor in vivo.

[2] = Plasma concentration of tenatoprazole after oral dosing in rats; type: in vivo, rat
[3] = Stability in rat plasma at 37° C., hydrolysis to tenatoprazole; type: in vitro ADME
Experimental: as §1

[4] = test system: histamine and carbachol-stimulated gastric acid secretion; assay: Inhibition of gastric acid secretion of the conscious male rat, oral administration; type: in vivo; settings: 40 μmole/kg, pylorus ligated 3 hours after administration, gastric juice collected two hours later
Experimental: Male rats (the Sprague-Dawley strain) are used in this assay. Salts of known benzimidazole type proton pump inhibitors, such as OMEPRAZOLE sodium salt, LANSOPRAZOLE sodium salt or TENATOPRAZOLE sodium salt (20 mg) is suspended in 10 ml of 0.1 N NaHCO3. 70 mg of each of the sodium salts of the compounds of the present invention are dissolved in 6 ml of 50% DMSO-50% 50 mM sodium phosphate buffer, pH 7.4. The doses administered to the rats are as follows (μmole per kg body weight of the rat): TENATOPRAZOLE (40 μmole/kg), a mixture of sodium 2-(4-(5-methoxy-2-((4-methoxy-3,5-dimethylpyridin-2-yl)methylsulfinyl)-1H-imidazo[4,5-b]pyridin-1-ylsulfonyl)phenoxy)acetate (Compound 1) and sodium 2-(4-(5-methoxy-2-((4-methoxy-3,5-dimethylpyridin-2-yl)methylsulfinyl)-3H-imidazo[4,5-b]pyridin-3-ylsulfonyl)phenoxy)acetate (1:1 of the isomeric mixture) 20 μmole/kg, and 40 μmole/kg. These drug solutions are orally administered. 3 hours after administration the abdomen of the rat is incised and the pylorus is ligated under light ether anethesia. […] The gastric juice is collected and acid output is quantified by titration using 0.1 N NaOH solution. […] Acid output is quantified by same method as described above, showing maximum histamine and carbachol-stimulated gastric acid secretion. Percentage inhibition is calculated from the fractional responses elicited by the test compound and a control experiment.

[5] = Stability at physiological pH 7.4 without plasma or blood; type: physicochemical
Experimental: as §1

Row | half-life [1] | Compound | plasma concentration of tenatoprazole ([2]; male Sprague-Dawley rats, oral 40 μmole/kg, 5 h postdose) | plasma level and half-life of TENATOPRAZOLE compared with TENATOPRAZOLE itself ([2]; rat, oral) | half-life in rat plasma [3] | inhibition of gastric acid secretion [4] | half-life in physiological pH 7.4 without the plasma or blood [5]
1 | 1.35 min | COc1ccc2c(n1)nc([S+]([O-])Cc1ncc(C)c(OC)c1C)n2S(=O)(=O)c1ccc(OCC(=O)[O-])cc1.[Na+] (stereo not drawn) [Compound 1, sodium 2-(4-(5-methoxy-2-((4-methoxy-3,5-dimethylpyridin-2-yl)methylsulfinyl)-1H-imidazo[4,5-b]pyridin-1-ylsulfonyl)phenoxy)acetate] |  |  |  |  | 
2 |  | sodium 2-(4-(5-methoxy-2-((4-methoxy-3,5-dimethylpyridin-2-yl)methylsulfinyl)-1H-imidazo[4,5-b]pyridin-1-ylsulfonyl)phenoxy)acetate (Compound 1) and sodium 2-(4-(5-methoxy-2-((4-methoxy-3,5-dimethylpyridin-2-yl)methylsulfinyl)-3H-imidazo[4,5-b]pyridin-3-ylsulfonyl)phenoxy)acetate [1:1 mixture of Compound 1 and its positional isomer] | 1940 ± 1685 ng/mL | maintains higher plasma level of TENATOPRAZOLE with longer plasma half-life | 1.2 min | 83.3±13.7% | greater than 24 hr
